Experimental data: PubChem BioAssay AID493137 (Sanford-Burnham Center for Chemical Genomics, 2011)
Values joined by “and” are separate entries in the source; they are usually repeats but may differ in a detail not shown here. Equal values may be shown once. Active and inactive are the calls of the source.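 The calls were made as follows: active = compounds whose mean IC50 is under 100 micromolar in the phosphatase inhibition dose series; inactive = the rest.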

Biological target: Intestinal-type alkaline phosphatase (Homo sapiens) (UniProt P09923)
Experiment: human IAP inhibitors, SAR follow-up, biochemical, luminescence (AID 493137)
Conditions: purified human IAP, CDP-Star luminescence, 30 min

Intestinal-type alkaline phosphatase (Homo sapiens), sequence (P09923 whole entry, looked up): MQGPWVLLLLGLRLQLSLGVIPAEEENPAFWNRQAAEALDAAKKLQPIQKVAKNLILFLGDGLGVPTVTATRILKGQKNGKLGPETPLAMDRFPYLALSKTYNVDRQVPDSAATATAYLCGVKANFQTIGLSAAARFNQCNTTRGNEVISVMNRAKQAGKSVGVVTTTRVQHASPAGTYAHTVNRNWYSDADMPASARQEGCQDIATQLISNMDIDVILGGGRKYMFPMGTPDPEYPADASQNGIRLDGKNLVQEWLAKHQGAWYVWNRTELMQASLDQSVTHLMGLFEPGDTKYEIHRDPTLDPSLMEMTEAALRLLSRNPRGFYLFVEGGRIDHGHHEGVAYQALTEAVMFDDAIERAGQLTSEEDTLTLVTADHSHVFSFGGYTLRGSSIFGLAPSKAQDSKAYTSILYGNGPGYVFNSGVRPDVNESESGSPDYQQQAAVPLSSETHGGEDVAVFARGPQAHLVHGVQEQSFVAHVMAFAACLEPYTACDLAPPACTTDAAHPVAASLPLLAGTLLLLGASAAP

SMILES	IC50
O=[N+]([O-])c1ccc(NC(=S)NCCC(c2ccccc2)c2ccccc2)cc1	> 100 µM (inactive)
COC(=O)/C=C1\S/C(=N/N=C/c2ccc(Cl)cc2)NC1=O	> 100 µM (inactive)
COc1ccc(NC(=S)NCCC(c2ccccc2)c2ccccc2)cc1	> 100 µM (inactive)
COC(=O)/C=C1\SC(N=Nc2c(O)[nH]c3ccccc23)=NC1=O	> 100 µM (inactive)
O=C(O)CC1S/C(=N/N=C/c2ccco2)NC1=O (stereo unspecified)	> 100 µM (inactive)
COc1cc(C=NNC(=S)Nc2cccc(S(=O)(=O)N(C)C)c2)ccc1O	> 100 µM (inactive)
CC(C)(C)c1ccc(/C=N/N=C2\NC(=O)C(CC(=O)O)S2)cc1 (stereo unspecified)	> 100 µM (inactive)
COC(=O)/C=C1/S/C(=N/N=Cc2ccc(N(C)C)cc2)NC1=O	> 100 µM (inactive)
COc1cc(C=NN=C2SC(CC(=O)O)C(=O)N2c2ccc(O)cc2)ccc1O (stereo unspecified)	> 100 µM (inactive)
COc1cc(/C=N/N=C2\NC(=O)C(CC(=O)O)S2)cc(OC)c1OC (stereo unspecified)	> 100 µM (inactive)
Cc1ccc(Nc2nc(-c3ccc(O)c(C(N)=O)c3)cs2)cc1	> 100 µM (inactive)
COC(=O)C/C=N/N=C1\NC(=O)/C(=C/C(=O)O)S1	> 100 µM (inactive)
Cc1cc(C)cc(Nc2nc(-c3ccc(O)cc3O)cs2)c1	> 100 µM (inactive)
Cc1cccc(Nc2nc(-c3ccc(O)c(C(N)=O)c3)cs2)c1	> 100 µM (inactive)
COc1cccc(Nc2nc(-c3ccc(O)cc3)cs2)c1	> 100 µM (inactive)
COc1ccc(/C=N/N=C2\NC(=O)C(CC(=O)O)S2)c(OC)c1 (stereo unspecified)	> 100 µM (inactive)
COc1ccc(-c2csc(Nc3cccc4ccccc34)n2)cc1F	> 100 µM (inactive)
COc1ccc(Cl)cc1Nc1nc(-c2ccc(O)c(O)c2)cs1	> 100 µM (inactive)
COC(=O)/C=C1/S/C(=N/NC(=O)c2ccccc2)NC1=O	> 100 µM (inactive)
Cc1ccc(Nc2nc(-c3ccc(O)cc3O)cs2)cc1F	> 100 µM (inactive)
COc1ccc(C=NN=C2SC(CC(=O)O)C(=O)N2c2ccc(O)cc2)cc1 (stereo unspecified)	> 100 µM (inactive)
CCOc1ccc(Nc2nc(-c3ccc(O)c(O)c3)cs2)cc1	> 100 µM (inactive)
COC(=O)/C=C1/S/C(=N/NC(=O)c2ccccc2C)NC1=O	> 100 µM (inactive)
Cc1ccc(Nc2nc(-c3ccc(O)c(O)c3)cs2)cc1	> 100 µM (inactive)
Cc1ccc(-c2ccc(/C=N/N=C3\NC(=O)C(CC(=O)O)S3)o2)c([N+](=O)[O-])c1 (stereo unspecified)	> 100 µM (inactive)
Cc1ccc(Nc2nc(-c3ccc(O)c(O)c3)cs2)cc1F	> 100 µM (inactive)

SMILES	IC50
Cc1cccc(NC(=S)NN=Cc2ccc3c(c2)OCO3)c1	> 100 µM (inactive)
COc1cc([N+](=O)[O-])ccc1NC(=S)NCCC(c1ccccc1)c1ccccc1	> 100 µM (inactive)
Oc1ccc(Nc2nc(-c3ccc(O)c(O)c3)cs2)cc1	11.6 µM
CC(=NNC(=S)Nc1ccccc1)c1ccc2c(c1)OCO2	> 100 µM (inactive)
Cn1c(=S)n(N=Cc2ccc3c(c2)OCO3)c2ccccc21	> 100 µM (inactive)
CCOc1cc(C=NNC(=S)NC2CCCCC2)ccc1O	> 100 µM (inactive)
Oc1ccc(-c2csc(Nc3ccccc3)n2)c(O)c1	> 100 µM (inactive)
Oc1ccc(-c2csc(Nc3cccc4ccccc34)n2)cc1O	33 µM and 46.8 µM
S=C(NCCC(c1ccccc1)c1ccccc1)Nc1ccc(Cl)cc1Cl	> 100 µM (inactive)
COc1ccc(C=NNC(=S)Nc2ccccc2[N+](=O)[O-])cc1O	> 100 µM (inactive)
Cc1c(Cl)cccc1Nc1nc(-c2ccc(O)c(O)c2)cs1	> 100 µM (inactive) and 96.6 µM
Cc1ccc(Nc2nc(-c3ccc(O)cc3O)cs2)cc1C	> 100 µM (inactive)
COC(=O)/C=C1/S/C(=N/NC(=O)c2ccc(Cl)cc2Cl)NC1=O	> 100 µM (inactive)
O=[N+]([O-])c1ccccc1NC(=S)NN=Cc1ccc(O)c(O)c1	76 µM
CN(C)S(=O)(=O)c1cccc(NC(=S)NN=Cc2ccc(O)c(O)c2O)c1	> 100 µM (inactive)
O=S(=O)(Nc1ncccn1)c1ccc(NC(=S)NCCC(c2ccccc2)c2ccccc2)cc1	> 100 µM (inactive)
O=[N+]([O-])c1ccccc1NC(=S)N/N=C/c1ccc(O)c(O)c1O	> 100 µM (inactive)
COC(=O)/C=C1\S/C(=N/N=C/CC(=O)OC)NC1=O	> 100 µM (inactive)
COc1cc(C(=O)NNC(=S)Nc2ccc(S(N)(=O)=O)cc2)cc(OC)c1OC	> 100 µM (inactive)
Cc1ccc(Nc2nc(-c3ccc(O)cc3O)cs2)cc1	> 100 µM (inactive)
Cc1ccc2sc(NNC(=O)c3ccc4c(c3)OCCO4)nc2c1C	> 100 µM (inactive)
COC(=O)/C=C1/S/C(=N/NC(=O)c2ccccc2OC)NC1=O	> 100 µM (inactive)
CCOc1cc(/C=N/N=C2\NC(=O)C(CC(=O)O)S2)ccc1O (stereo unspecified)	> 100 µM (inactive)
Cc1cccc(C)c1NC(=S)N/N=C/c1ccc(O)c(O)c1O	> 100 µM (inactive)
Cc1cccc(Nc2nc(-c3ccc(O)c(O)c3)cs2)c1	> 100 µM (inactive)
Cc1ccc2nc(NNC(=O)c3ccc4c(c3)OCCO4)sc2c1	> 100 µM (inactive)

SMILES	IC50
Cc1cccc2sc(NNC(=O)c3ccc4c(c3)OCCO4)nc12	> 100 µM (inactive)
CCN(CC)S(=O)(=O)c1ccc(-c2csc(=Nc3cccc4ccccc34)n2C)cc1	> 100 µM (inactive)
COc1ccc(-c2csc(Nc3cccc4ccccc34)n2)cc1	> 100 µM (inactive)
COc1ccc(C(=O)NNC(=S)NC2CCCCC2)cc1OC	> 100 µM (inactive)
Cc1cccc(NC(=S)NNC(=O)c2ccc3c(c2)OCO3)c1	> 100 µM (inactive)
COc1cc(/C=N/N=C2/SCC(=O)N2c2ccc(O)cc2)ccc1O	> 100 µM (inactive)
COc1ccc(/C=N/N=C2/NC(=O)C(CC(=O)O)S2)cc1OC (stereo unspecified)	> 100 µM (inactive)
COC(=O)/C=C1/S/C(=N/NC(=O)c2ccc(OC)cc2)NC1=O	> 100 µM (inactive)
Cc1cc(=O)oc2cc(NC(=S)NCCC(c3ccccc3)c3ccccc3)ccc12	> 100 µM (inactive)
O=S(=O)(c1ccc(NC(=S)N/N=C/c2ccc(O)c(O)c2)cc1)N1CCOCC1	> 100 µM (inactive)
COc1cc(C=NNC(=S)Nc2cccc(C(=O)O)c2)ccc1O	> 100 µM (inactive)
CCc1ccccc1Nc1nc(-c2ccc(O)c(O)c2)cs1	17.8 µM and 14.5 µM
FC(F)(F)c1cccc(NC(=S)NCCC(c2ccccc2)c2ccccc2)c1	> 100 µM (inactive)
O=S(=O)(c1ccc(NC(=S)N/N=C/c2ccc(O)c(O)c2O)cc1)N1CCOCC1	> 100 µM (inactive)
N#CCCn1cc(/C=N/N=C2/NC(=O)C(CC(=O)O)S2)c(-c2ccc(F)cc2)n1 (stereo unspecified)	> 100 µM (inactive)
NS(=O)(=O)c1ccc(Nc2nc(-c3ccc(O)c(O)c3)cs2)cc1	45.1 µM
Oc1ccc(-c2csc(Nc3ccc(F)cc3)n2)cc1O	> 100 µM (inactive)
COc1ccc(C=Nn2c(=S)n(C)c3ccccc32)cc1OC	> 100 µM (inactive)
COc1cc(C=NNC(=S)Nc2cccc(S(=O)(=O)N(C)C)c2)cc(OC)c1O	> 100 µM (inactive)
Cc1ccc(Cl)cc1Nc1nc(-c2ccc(O)c(O)c2)cs1	24.4 µM
COc1cc([N+](=O)[O-])ccc1NC(=S)NNC(=O)c1ccc2c(c1)OCO2	> 100 µM (inactive)
CCOc1cc(C=N/N=C2/NC(=O)C(CC(=O)O)S2)ccc1OCc1ccccc1Cl (stereo unspecified)	> 100 µM (inactive)
NS(=O)(=O)c1ccc(Nc2nc(-c3ccc(O)cc3O)cs2)cc1	> 100 µM (inactive)
Cc1ccc(C)c(Nc2nc(-c3ccc(O)cc3O)cs2)c1	> 100 µM (inactive)
